Each structure is given as a SMILES string. Read-outs that look alike come from different tables or passages of the source.

One assay addresses T1, USP5 (Homo sapiens, UniProt P45974).
T1 sequence (P45974 1-858): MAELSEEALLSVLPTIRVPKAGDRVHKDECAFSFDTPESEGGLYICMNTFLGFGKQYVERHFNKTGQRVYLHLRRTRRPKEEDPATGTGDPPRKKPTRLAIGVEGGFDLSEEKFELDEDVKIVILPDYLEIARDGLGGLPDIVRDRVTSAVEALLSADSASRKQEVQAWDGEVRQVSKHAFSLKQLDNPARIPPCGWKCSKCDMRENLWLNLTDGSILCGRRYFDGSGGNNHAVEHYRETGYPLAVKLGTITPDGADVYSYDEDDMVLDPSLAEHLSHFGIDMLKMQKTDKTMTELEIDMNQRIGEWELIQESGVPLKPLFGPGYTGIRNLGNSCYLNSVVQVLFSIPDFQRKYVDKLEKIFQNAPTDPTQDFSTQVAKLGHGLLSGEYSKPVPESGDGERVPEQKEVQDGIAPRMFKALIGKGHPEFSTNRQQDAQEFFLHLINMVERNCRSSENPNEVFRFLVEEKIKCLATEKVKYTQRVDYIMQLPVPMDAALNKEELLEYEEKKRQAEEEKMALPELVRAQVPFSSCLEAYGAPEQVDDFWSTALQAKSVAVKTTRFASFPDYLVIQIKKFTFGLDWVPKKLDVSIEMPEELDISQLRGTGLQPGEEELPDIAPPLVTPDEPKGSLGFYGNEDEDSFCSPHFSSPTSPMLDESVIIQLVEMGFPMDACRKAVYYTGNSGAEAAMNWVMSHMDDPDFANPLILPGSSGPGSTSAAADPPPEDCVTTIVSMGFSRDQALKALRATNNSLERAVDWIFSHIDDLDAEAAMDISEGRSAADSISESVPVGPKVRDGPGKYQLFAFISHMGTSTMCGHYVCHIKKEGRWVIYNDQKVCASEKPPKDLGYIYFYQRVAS
Put plainly: USP5 activity assay. The class given is biochemical. The conditions noted are these: 400 nM Ub-AMC, 300 pM enzyme, 30 min pre-incubation at 25° C., 60 min at 37° C.; sigmoidal fit; AF: Autofluorescent; read-out: USP 5 (inhibition of cysteine protease activity). How it is done:
Bovine Serum Albumin 0.05 mg·ml^−1 pH7.6). Compounds stocks (100 mM) were stored at −20° C. in DMSO. […] Reactions were performed as duplicates in Black LJL 96 well plates (HE microplates; Molecular Devices; 20 μl final reaction volume). The substrate concentration for USP5 was 400 nM Ub-AMC (Boston Biochem). The concentrations of the enzyme (USP5) in specificity assays was 300 pM. The concentrations were determined in order to perform specificity assays under initial velocities at fixed substrate concentration. Compounds were pre-incubated with enzymes for 30 minutes at 25° C. Reactions were initiated by addition of substrate to the plates containing the enzymes (+/− compounds) diluted in assay buffer. Reactions were incubated for 60 minutes at 37° C. Reactions were stopped by adding acetic acid (100 mM final). Readings were performed on a Pherastar Fluorescent Reader (BMG). λ Emission 380 nm; λ Excitation=460 nm. Data (mean values +/− standard deviation) were analyzed as % of control (no compound) and plotted as percentage versus the Log of the compound concentration using GraphPad (Prism). Data were fitted to a sigmoidal model (variable slope).

In a further assay the target is Cathepsin B (Homo sapiens, UniProt P07858). Put plainly: Cathepsin B activity assay. In kind it is biochemical. The conditions noted are these: 36 μM z-RR-AMC, 3.6 nM enzyme, 30 min pre-incubation at 25° C., 60 min at 37° C.; sigmoidal fit; AF: Autofluorescent; read-out: cathepB (inhibition of cysteine protease activity). How it is done:
Cathepsin B was diluted in Cathepsin B buffer (20 mM Tris HCl pH 6.8; 1 mM EDTA; 1 mM DTT). Compounds stocks (100 mM) were stored at −20° C. in DMSO. […] Reactions were performed as duplicates in Black LJL 96 well plates (HE microplates; Molecular Devices; 20 μl final reaction volume). The substrate concentration for cathepsin B specificity assay was 36 μM (z-RR-AMC; Calbiochem). The concentration of the enzyme (Cathepsin B) in specificity assays was 3.6 nM. The concentrations were determined in order to perform specificity assays under initial velocities at fixed substrate concentration. Compounds were pre-incubated with enzymes for 30 minutes at 25° C. Reactions were initiated by addition of substrate to the plates containing the enzymes (+/− compounds) diluted in assay buffer. Reactions were incubated for 60 minutes at 37° C. Reactions were stopped by adding acetic acid (100 mM final). Readings were performed on a Pherastar Fluorescent Reader (BMG). δ Emission 380 nm; 6 Excitation=460 nm. Data (mean values+/− standard deviation) were analyzed as % of control (no compound) and plotted as percentage versus the Log of the compound concentration using GraphPad (Prism). Data were fitted to a sigmoidal model (variable slope).

Assay [1] has as its system HCT116 colon cancer cells. Put plainly: HCT116 cell viability and proliferation assay (MTS). In kind it is cell-based. The following applies: Homo sapiens, read-out: HCT116 D3 GI50.
Assay [2] concerns PC-3 prostate cancer cells. Put plainly: PC3 cell viability and proliferation assay (MTS). In kind it is cell-based. The conditions noted are these: Homo sapiens, PC-3, 72 h, read-out: PC3 D3 GI50.
The mark [3] stands for this setting: HCT-116, HCT116 cells, 72 hours incubation, MTS, mean of 3 independent experiments.
The mark [4] stands for this setting: PC3 cells, 72 hours incubation, MTS, mean of 3 independent experiments.

As usually defined, the GI50 is the concentration giving 50% growth inhibition. Turning to `N#Cc1nc2sc3ccccc3c2nc1C#N` [Example 19, benzo[4,5]thieno[2,3-b]pyrazine-2,3-dicarbonitrile], the IC50 at USP5 and at Cathepsin B was more than 100 µM each time. Also, the GI50 in assay [1] (setting [3]) was 10 µM; in assay [2] (setting [4]), 4.2 µM.

`Cc1cccc2c1Cc1nc(C#N)c(C#N)nc1-2` [Example 16c, 8-Methyl-9H-indeno[1,2-b]pyrazine-2,3-dicarbonitrile]: the IC50 at USP5 and on Cathepsin B was more than 100 µM each time. Also, the GI50 in assay [1] (setting [3]) was 1.47 µM; in assay [2] (setting [4]) it was 3.37 µM.

As to `CN(C)c1nc2c(nc1C#N)C(=O)c1ccccc1-2` [Example 4, 3-dimethylamino-9-oxo-9H-indeno[1,2-b]pyrazine-2-carbonitrile], the IC50 at USP5 and on Cathepsin B was more than 100 µM throughout. The GI50 in assay [1] (setting [3]) and in assay [2] (setting [4]) was more than 10 µM throughout.

In the case of `N#Cc1nc2c(nc1C#N)-c1ccccc1C2=Nc1ccccc1` (mixture of isomers) [Example 14, 9-[phenylimino]-9H-indeno[1,2-b]pyrazine-2,3-dicarbonitrile], the IC50 came out at 1.9 µM at USP5 and 74 µM at Cathepsin B. In addition, the GI50 came to 0.43 µM in assay [1] (setting [3]) and 0.51 µM in assay [2] (setting [4]).

Take `COc1ccc(OC)c2c1C(=O)c1nc(C#N)c(C#N)nc1-2` [Example 17f, 5,8-Dimethoxy-9-oxo-9H-indeno[1,2-b]pyrazine-2,3-dicarbonitrile]: the figures for the IC50 on USP5 and on Cathepsin B were 3.3 µM and 52.6 µM, respectively. The GI50 was 0.93 µM in assay [1] (setting [3]) and 0.8 µM in assay [2] (setting [4]).

For `N#Cc1nc2c(nc1C#N)C(=O)c1ccccc1C2=O` [Example 20, 5,10-dioxo-5,10-dihydro-benzo[g]quinoxaline-2,3-dicarbonitrile], the IC50 at USP5 and at Cathepsin B was more than 100 µM each time. Moreover, the GI50 in assay [1] (HCT-116, 72 h) was determined as 0.78 µM; in assay [2] it was 1.26 µM.

`COc1nc2c(nc1C#N)C(=O)c1ccccc1-2` [Example 3, 3-methoxy-9-oxo-9H-indeno[1,2-b]pyrazine-2-carbonitrile]: the IC50 on USP5 and at Cathepsin B was more than 100 µM throughout. The GI50 in assay [1] (setting [3]) and in assay [2] (setting [4]) was more than 10 µM each time.

With `COc1ccc2c(c1)C(=O)c1nc(C#N)c(C#N)nc1-2` [Example 17i, 7-Methoxy-9-oxo-9H-indeno[1,2-b]pyrazine-2,3-dicarbonitrile], the results for the IC50 at USP5 and on Cathepsin B were 23 µM and 32 µM, respectively. The values for the GI50 in assay [1] (setting [3]) and in assay [2] (setting [4]) were 0.56 µM and 1.27 µM, respectively.

For the compound `N#Cc1nc2c(nc1C#N)-c1ccc(Cl)cc1C2=NOCCOc1ccccc1` [Example 27b, 7-Chloro-9-(2-phenoxy-ethoxyimino)-9H-indeno[1,2-b]pyrazine-2,3-dicarbonitrile], the IC50 on USP5 and at Cathepsin B was more than 100 µM in each case. For the same compound, the GI50 in assay [1] (HCT-116, 72 h) amounted to 0.294 µM; in assay [2], 0.259 µM.

`CCON=C1c2ccccc2-c2nc(C#N)c(C#N)nc21` (mixture of isomers) [Example 13d, 9-Ethoxyimino-9H-indeno[1,2-b]pyrazine-2,3-dicarbonitrile]: the IC50 at USP5 and at Cathepsin B was more than 100 µM throughout. The GI50 was found to be 1.18 µM in assay [1] (setting [3]) and 1.54 µM in assay [2] (setting [4]).

For `N#Cc1nc2c(nc1Cl)-c1ccccc1C2=O` [Example 9, 3-chloro-9-oxo-9H-indeno[1,2-b]pyrazine-2-carbonitrile], the IC50 on USP5 and at Cathepsin B was more than 100 µM in each case. Also, the GI50 in assay [1] (setting [3]) and in assay [2] (setting [4]) was more than 10 µM each time.

On to `N#Cc1nc2c(nc1O)-c1ccc(Cl)cc1C2=O` [Example 42, 7-chloro-3-hydroxy-9-oxo-9H-indeno[1,2-b]pyrazine-2-carbonitrile], for which the IC50 on USP5 and on Cathepsin B was more than 100 µM each time. Also, the GI50 in assay [1] (HCT-116, 72 h) was more than 10 µM; in assay [2], more than 10 µM.

Values taken from patent publication US8648076B2, “Cysteine protease inhibitors and their therapeutic applications” (Hybrigenics SA, priority 2005, dated 2014).
